Laboratory results reported in paper PMC5516028, “Molecular tools for GABAA receptors: High affinity ligands for β1-containing subtypes” (Scientific Reports, 2017).

Experiments:
α4β3γ2 GABAA receptors = biological target: T1, α4β3γ2 GABAA receptors (Rattus norvegicus, UniProt P28471+P63079); assay: Two electrode voltage clamp in Xenopus laevis oocytes, α4β3γ2; assay type: cell-based; settings: for activity at 0.001 µM: 1 nM; for activity at 0.003 µM: 3 nM; for activity at 0.01 µM: 10 nM; for activity at 0.03 µM: 30 nM; for activity at 0.1 µM: 100 nM
T1 construct: expressed in transfected cells; host or cells: Xenopus laevis oocytes, mRNA injected
Text: (§1) cDNA’s of rat GABAA receptor subunits α1, α4, β1, β2, β3 and γ2S were cloned as described. cDNAs of the rat subunits α2, α3 and α5 were gifts from P. Malherbe, that of α6 and γ1 were gifts of P. Seeburg and that of δ was a gift of C. Czajkowski. The mutants were constructed using the Q5 Site-Directed Mutagenesis Kit (New England Biolabs) following manufacturer’s instruction. We used the wild-type rat β3-pCI vector as template and the primers […] and […] resulting in a substitution of amino acid N41 (AAC) to R (AGG). We used the wild-type rat β1-pCI vector as template and the primers […] and […] resulting in a substitution of amino acid R41 (CGG) to N (AAC). The mutated subunits were confirmed by sequencing.
(§2) In vitro transcription of mRNA was based on the cDNA expression vectors encoding for rat GABAA receptor subunits α1–6, β1-3, γ1,2, δ and the two β mutants (β1R41N and β3N41R)[40]. After linearizing the cDNA vectors with appropriate restriction endonucleases, the cDNA was purified and concentrated with the DNA Clean and Contentrator ^TM Kit (Zymoresearch, Catalog No. D4005). Capped transcripts of the purified cDNA were produced using the mMESSAGE mMACHINE® T7 transcription kit (Ambion, TX, USA) and polyadenylated using the Ambion PolyA tailing kit (Ambion). After transcription and polyadenylation the RNA was purified with the MEGAclear ^TM Kit (Ambion, Catalog No. AM1908). The final RNA concentration was measured on NanoDrop® ND-1000 and finally diluted and stored in diethylpyrocarbonate-treated water at −80 °C. For the microinjection, the RNA of αβ receptor combinations was mixed at 1:1 ratio (which leads to αβ receptors that consist of predominantly 3 beta and 2 alpha subunits[27]), for αkβlγm (k = 1–3, l = 1, 3, m = 1, 2) receptors at 1:1:5 ratio, for αkβ3γ2 (k = 4–6) and αkβlδ (k = 1, 4 and 6, l = 1, 3) receptor combinations at 3:1:5 ratio.
(§3) Mature female Xenopus laevis (Nasco, WI) were anesthetized in a bath of ice-cold 0.17% Tricain (Ethyl-m-aminobenzoate, Sigma, MO) before decapitation in full accordance with all rules of the Austrian animal protection law (see http://www.ris.bka.gv.at/Dokumente/BgblAuth/BGBLA_2012_I_114/BGBLA_2012_I_114.pdf) and the Austrian animal experiment by-laws (see https://www.ris.bka.gv.at/Dokumente/BgblAuth/BGBLA_2012_II_522/BGBLA_2012_II_522.pdf) which implement the European Directive 2010/63/EU (see http://eur-lex.europa.eu/LexUriServ/LexUriServ.do?uri=OJ:L:2010:276:0033:0079:en:PDF) into the Austrian law (all information accessed on July 27, 2016). The frog’s ovaries were transferred to ND96 medium (96 mM NaCl, 2 mM KCl, 1 mM MgCl2, 5 mM HEPES; pH 7.5). Stage 5–6 oocytes with the follicle cell layer around them were roughly dissected with forceps into packages of 10–15 cells and washed in Ca^2+-free ND96 medium. Cells were then digested with collagenase (type IA, Sigma, NO, 1 mg/mL ND96) at 18 °C shaking at 30 rpm for 30–60 minutes and gently defolliculated with the aid of a glass pipette with appropriate tip diameter and a platinum loop. Defolliculated cells were stored at 18 °C for at least 6 hours in ND96 solution containing penicillin G (10000 IU/100 mL) and streptomycin (10 mg/100 mL) in order to preselect and exclude damaged cells from further treatment. Healthy defolliculated oocytes were injected with an aqueous solution of mRNA. A total of 4.5 ng of mRNA per oocyte was injected with a Nanoject II (Drummond). After injection of mRNA, oocytes were incubated at 18 °C (ND96 + antibiotic) for 2–3 days for αβ receptors and for 3–4 days for αβγ or αβδ receptors before recording. When cells were measured at later time points, oocytes were stored at +4 °C instead of 18 °C.
(§4) For electrophysiological recordings, oocytes were placed on a nylon-grid in a bath of Ca^2+-containing NDE solution medium [96 mM NaCl, 5 mM HEPES-NaOH (pH 7.5), 2 mM KCl, 1 mM MgCl2, 1.8 mM CaCl2].

α2β3 GABAA receptors = biological target: T2, α2β3 GABAA receptors (Rattus norvegicus, UniProt P23576+P63079); parameters: method as in earlier work; settings: published data, ref 1 (Supplementary References), read-out: Approximate EC50; cited from earlier work
T2 construct: expressed in transfected cells; host or cells: Xenopus laevis oocytes, mRNA injected

α5β3γ2 GABAA receptors = biological target: T3, α5β3γ2 GABAA receptors (Rattus norvegicus, UniProt P19969+P63079); parameters: method as in earlier work; settings: published data, ref 1 (Supplementary References), read-out: Approximate EC50; cited from earlier work
T3 construct: expressed in transfected cells; host or cells: Xenopus laevis oocytes, mRNA injected

α1β3γ2 GABAA receptors = biological target: T4, α1β3γ2 GABAA receptors (Rattus norvegicus, UniProt P62813+P63079); parameters: method as in earlier work; settings: published data, ref 1 (Supplementary References), read-out: Approximate EC50; cited from earlier work
T4 construct: expressed in transfected cells; host or cells: Xenopus laevis oocytes, mRNA injected

α1β1γ2 GABAA receptors = biological target: α1β1γ2 GABAA receptors; parameters: method as in earlier work; settings: published data, ref 1 (Supplementary References), read-out: Approximate EC50; cited from earlier work
α5β3 GABAA receptors = biological target: T5, α5β3 GABAA receptors (Rattus norvegicus, UniProt P19969+P63079); parameters: method as in earlier work; settings: published data, ref 1 (Supplementary References), read-out: Approximate EC50; cited from earlier work
T5 construct: expressed in transfected cells; host or cells: Xenopus laevis oocytes, mRNA injected

α1β1γ1 GABAA receptors = biological target: T6, α1β1γ1 GABAA receptors (Rattus norvegicus, UniProt P15431+P62813); assay: Two electrode voltage clamp in Xenopus laevis oocytes, α1β1γ1; assay type: cell-based
T6 construct: expressed in transfected cells; host or cells: Xenopus laevis oocytes, mRNA injected
Text: as §1, §2, §3, §4

α1β3 GABAA receptors = biological target: T7, α1β3 GABAA receptors (Rattus norvegicus, UniProt P62813+P63079); parameters: method as in earlier work; settings: published data, ref 1 (Supplementary References), read-out: Approximate EC50; cited from earlier work
T7 construct: expressed in transfected cells; host or cells: Xenopus laevis oocytes, mRNA injected

α6β3γ2 GABAA receptors = biological target: T8, α6β3γ2 GABAA receptors (Rattus norvegicus, UniProt P30191+P63079); parameters: method as in earlier work; settings: published data, ref 1 (Supplementary References), read-out: Approximate EC50; cited from earlier work
T8 construct: expressed in transfected cells; host or cells: Xenopus laevis oocytes, mRNA injected

α5β2γ2 GABAA receptors = biological target: α5β2γ2 GABAA receptors; parameters: method as in earlier work; settings: published data, ref 1 (Supplementary References), read-out: Approximate EC50; cited from earlier work
α1β2γ2 GABAA receptors = biological target: α1β2γ2 GABAA receptors; parameters: method as in earlier work; settings: published data, ref 1 (Supplementary References), read-out: Approximate EC50; cited from earlier work
α2β1γ2 GABAA receptors = biological target: α2β1γ2 GABAA receptors; parameters: method as in earlier work; settings: published data, ref 1 (Supplementary References), read-out: Approximate EC50; cited from earlier work
α2β2γ2 GABAA receptors = biological target: α2β2γ2 GABAA receptors; parameters: method as in earlier work; settings: published data, ref 1 (Supplementary References), read-out: Approximate EC50; cited from earlier work
[1] = read-out: efficacy, % of control current (GABA EC3-5 = 100%), α4β3γ2

T6 sequence (P62813 28-455): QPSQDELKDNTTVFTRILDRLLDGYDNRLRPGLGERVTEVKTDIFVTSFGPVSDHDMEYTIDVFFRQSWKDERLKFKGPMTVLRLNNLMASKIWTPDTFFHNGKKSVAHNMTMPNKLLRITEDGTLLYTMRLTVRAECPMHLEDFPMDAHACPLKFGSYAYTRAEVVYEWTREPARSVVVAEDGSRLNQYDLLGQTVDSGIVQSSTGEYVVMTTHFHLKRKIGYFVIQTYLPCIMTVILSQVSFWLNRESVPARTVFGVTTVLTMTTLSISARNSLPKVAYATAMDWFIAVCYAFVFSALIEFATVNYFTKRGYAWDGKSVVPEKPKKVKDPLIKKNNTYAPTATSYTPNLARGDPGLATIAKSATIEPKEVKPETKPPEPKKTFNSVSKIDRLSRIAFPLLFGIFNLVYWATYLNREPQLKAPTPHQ
T6 sequence (P15431 26-474): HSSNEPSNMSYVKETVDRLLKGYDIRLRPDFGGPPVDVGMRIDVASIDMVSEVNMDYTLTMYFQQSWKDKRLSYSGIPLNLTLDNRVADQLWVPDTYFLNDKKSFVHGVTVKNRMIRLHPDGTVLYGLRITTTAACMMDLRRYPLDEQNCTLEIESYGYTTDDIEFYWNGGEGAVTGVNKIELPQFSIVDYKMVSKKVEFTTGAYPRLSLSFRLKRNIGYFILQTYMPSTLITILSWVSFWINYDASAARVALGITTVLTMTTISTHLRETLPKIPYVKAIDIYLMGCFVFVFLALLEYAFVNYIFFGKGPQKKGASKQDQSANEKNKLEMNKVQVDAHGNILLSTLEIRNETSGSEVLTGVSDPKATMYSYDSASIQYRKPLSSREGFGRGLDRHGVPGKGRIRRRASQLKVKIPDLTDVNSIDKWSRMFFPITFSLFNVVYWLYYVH
T6 sequence (P23574 36-465 partner limits assumed): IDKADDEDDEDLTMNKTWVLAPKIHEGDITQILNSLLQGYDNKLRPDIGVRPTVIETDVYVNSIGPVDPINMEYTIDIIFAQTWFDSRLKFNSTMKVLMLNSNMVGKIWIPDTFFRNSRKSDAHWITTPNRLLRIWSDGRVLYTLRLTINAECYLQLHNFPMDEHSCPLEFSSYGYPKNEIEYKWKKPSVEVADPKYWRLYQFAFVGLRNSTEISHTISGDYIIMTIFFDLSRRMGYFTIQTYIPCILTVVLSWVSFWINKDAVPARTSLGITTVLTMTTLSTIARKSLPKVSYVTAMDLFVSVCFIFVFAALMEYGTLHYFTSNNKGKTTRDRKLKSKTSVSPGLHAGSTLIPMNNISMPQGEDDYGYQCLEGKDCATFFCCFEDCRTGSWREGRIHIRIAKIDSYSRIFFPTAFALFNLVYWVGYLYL
T1 sequence (P28471 36-552): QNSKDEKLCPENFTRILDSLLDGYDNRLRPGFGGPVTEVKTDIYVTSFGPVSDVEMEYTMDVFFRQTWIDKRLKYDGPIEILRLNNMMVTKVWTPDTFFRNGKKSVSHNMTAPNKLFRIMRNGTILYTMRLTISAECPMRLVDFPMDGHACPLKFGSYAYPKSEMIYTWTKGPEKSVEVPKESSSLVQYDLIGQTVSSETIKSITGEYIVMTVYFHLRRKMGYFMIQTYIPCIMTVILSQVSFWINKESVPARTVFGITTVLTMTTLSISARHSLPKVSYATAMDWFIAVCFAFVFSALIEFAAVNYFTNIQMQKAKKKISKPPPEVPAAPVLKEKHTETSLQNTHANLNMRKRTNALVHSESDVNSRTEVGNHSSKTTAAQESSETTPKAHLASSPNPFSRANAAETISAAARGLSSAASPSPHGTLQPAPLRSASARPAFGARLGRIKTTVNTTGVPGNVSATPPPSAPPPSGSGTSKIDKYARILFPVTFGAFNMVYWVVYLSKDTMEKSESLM
T1 sequence (P63079 26-473): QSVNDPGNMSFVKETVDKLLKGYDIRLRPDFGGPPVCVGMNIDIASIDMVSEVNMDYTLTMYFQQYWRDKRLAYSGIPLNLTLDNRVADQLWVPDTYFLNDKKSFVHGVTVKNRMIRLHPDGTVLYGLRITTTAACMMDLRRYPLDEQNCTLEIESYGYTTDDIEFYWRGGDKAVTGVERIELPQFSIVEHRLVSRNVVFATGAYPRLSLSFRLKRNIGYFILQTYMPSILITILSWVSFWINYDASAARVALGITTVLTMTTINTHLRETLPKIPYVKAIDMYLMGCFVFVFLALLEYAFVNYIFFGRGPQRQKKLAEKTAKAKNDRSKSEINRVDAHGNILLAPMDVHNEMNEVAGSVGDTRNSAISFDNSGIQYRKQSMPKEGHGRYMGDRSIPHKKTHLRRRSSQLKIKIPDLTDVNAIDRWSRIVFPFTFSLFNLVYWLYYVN
T1 sequence (P18508 39-466 partner): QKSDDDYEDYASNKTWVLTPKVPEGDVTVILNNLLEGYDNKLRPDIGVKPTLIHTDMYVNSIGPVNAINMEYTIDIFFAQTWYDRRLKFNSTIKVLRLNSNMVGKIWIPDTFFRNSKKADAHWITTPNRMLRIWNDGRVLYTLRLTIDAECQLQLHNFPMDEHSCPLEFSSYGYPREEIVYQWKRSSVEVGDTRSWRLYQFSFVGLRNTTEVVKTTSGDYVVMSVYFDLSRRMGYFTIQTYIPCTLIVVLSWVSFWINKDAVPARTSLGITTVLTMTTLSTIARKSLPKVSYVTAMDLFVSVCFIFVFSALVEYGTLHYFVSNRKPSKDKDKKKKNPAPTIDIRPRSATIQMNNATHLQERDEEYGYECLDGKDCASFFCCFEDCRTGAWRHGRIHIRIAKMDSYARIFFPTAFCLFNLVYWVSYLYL
T8 sequence (P30191 20-453): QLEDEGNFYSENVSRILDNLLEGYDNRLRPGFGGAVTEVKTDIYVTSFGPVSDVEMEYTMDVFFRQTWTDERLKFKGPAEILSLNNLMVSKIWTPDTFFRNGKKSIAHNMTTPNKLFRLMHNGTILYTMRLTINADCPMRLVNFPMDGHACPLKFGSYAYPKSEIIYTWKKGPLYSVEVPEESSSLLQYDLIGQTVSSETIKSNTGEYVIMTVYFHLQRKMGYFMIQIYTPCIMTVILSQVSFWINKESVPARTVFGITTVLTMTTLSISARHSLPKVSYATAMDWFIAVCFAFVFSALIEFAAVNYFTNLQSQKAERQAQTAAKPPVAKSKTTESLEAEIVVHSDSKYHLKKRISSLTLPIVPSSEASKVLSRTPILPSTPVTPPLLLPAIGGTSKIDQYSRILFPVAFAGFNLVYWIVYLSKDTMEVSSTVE
T8 sequence (P63079 26-473): as the sequence (P63079 26-473) above
T8 sequence (P18508 39-466 partner): as the sequence (P18508 39-466 partner) above
T3 sequence (P19969 32-464 limits assumed): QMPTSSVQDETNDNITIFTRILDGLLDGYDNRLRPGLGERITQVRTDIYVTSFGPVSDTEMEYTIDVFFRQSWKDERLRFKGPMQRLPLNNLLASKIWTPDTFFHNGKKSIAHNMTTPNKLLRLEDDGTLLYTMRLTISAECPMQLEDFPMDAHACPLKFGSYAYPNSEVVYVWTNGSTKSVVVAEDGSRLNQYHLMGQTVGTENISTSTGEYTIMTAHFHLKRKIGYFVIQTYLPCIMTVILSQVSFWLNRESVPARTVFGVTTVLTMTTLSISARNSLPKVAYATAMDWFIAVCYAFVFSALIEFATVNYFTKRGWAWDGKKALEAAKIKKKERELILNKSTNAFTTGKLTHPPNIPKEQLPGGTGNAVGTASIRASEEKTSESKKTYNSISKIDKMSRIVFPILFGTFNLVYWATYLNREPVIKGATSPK
T3 sequence (P63079 26-473): as the sequence (P63079 26-473) above
T3 sequence (P18508 39-466 partner): as the sequence (P18508 39-466 partner) above
T5 sequence (P19969 32-464 limits assumed): as the sequence (P19969 32-464 limits assumed) above
T5 sequence (P63079 26-473): as the sequence (P63079 26-473) above
T2 sequence (P23576 29-451): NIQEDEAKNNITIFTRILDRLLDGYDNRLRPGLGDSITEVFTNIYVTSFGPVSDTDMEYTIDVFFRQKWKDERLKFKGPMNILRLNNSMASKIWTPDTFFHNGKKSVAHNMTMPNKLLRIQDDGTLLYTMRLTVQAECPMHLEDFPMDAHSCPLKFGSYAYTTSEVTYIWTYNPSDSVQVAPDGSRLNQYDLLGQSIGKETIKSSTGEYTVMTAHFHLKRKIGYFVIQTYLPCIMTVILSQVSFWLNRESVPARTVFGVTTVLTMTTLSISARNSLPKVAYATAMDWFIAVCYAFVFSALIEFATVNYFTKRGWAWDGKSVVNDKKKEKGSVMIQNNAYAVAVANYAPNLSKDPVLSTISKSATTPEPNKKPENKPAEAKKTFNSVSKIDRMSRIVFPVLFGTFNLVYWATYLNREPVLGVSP
T2 sequence (P63079 26-473): as the sequence (P63079 26-473) above
T4 sequence (P62813 28-455): as the sequence (P62813 28-455) above
T4 sequence (P63079 26-473): as the sequence (P63079 26-473) above
T4 sequence (P18508 39-466 partner): as the sequence (P18508 39-466 partner) above
T7 sequence (P62813 28-455): as the sequence (P62813 28-455) above
T7 sequence (P63079 26-473): as the sequence (P63079 26-473) above

## Nc1ccc(-n2nc3c4cc(Cl)ccc4[nH]cc-3c2=O)cc1 [Compound 3, 8-Chloro-2-(4-aminophenyl)-2H-pyrazolo[4,3-c]quinolin-3(5H)-one]
α4β3γ2 GABAA receptors
  EC50: > 10000 nM
α4β3γ2 GABAA receptors; [1]
  activity at 0.001 µM: 99.7 ± 2%
  activity at 0.003 µM: 111%
  activity at 0.01 µM: 107 ± 3.4%
  activity at 0.03 µM: 114%
  activity at 0.1 µM: 122 ± 4.6%
  activity at 1 µM: 137 ± 6.7%
  activity at 10 µM: 104 ± 12.6%

## COc1ccc(-n2nc3c4cc(Cl)ccc4[nH]cc-3c2=O)cc1 [Compound 1, 8-Chloro-2-(4-methoxyphenyl)-2H-pyrazolo[4,3-c]quinolin-3(5H)-one]
α2β3 GABAA receptors
  EC50: ~3000 nM
α5β3γ2 GABAA receptors
  EC50: ~600 nM
α1β3γ2 GABAA receptors
  EC50: ~1800 nM
α1β1γ2 GABAA receptors
  EC50: ~100 nM
α5β3 GABAA receptors
  EC50: ~600 nM
α1β1γ1 GABAA receptors
  EC50: 80 nM
α1β1γ1 GABAA receptors; read-out: efficacy, % of control current (GABA EC3-5 = 100%), α1β1γ1, 1 nM
  activity at 0.001 µM: 110 ± 9.9%
α1β1γ1 GABAA receptors; read-out: efficacy, % of control current (GABA EC3-5 = 100%), α1β1γ1, 1 µM
  activity at 1 µM: 320 ± 17.9%
α1β1γ1 GABAA receptors; read-out: efficacy, % of control current (GABA EC3-5 = 100%), α1β1γ1, 10 µM
  activity at 10 µM: 300 ± 20.8%
α1β1γ1 GABAA receptors; α1β1γ1
  Hill slope (nH): 1.1±0.4
α1β3 GABAA receptors
  EC50: ~1600 nM
α6β3γ2 GABAA receptors
  EC50: ~3300 nM
α5β2γ2 GABAA receptors
  EC50: ~3000 nM
α1β2γ2 GABAA receptors
  EC50: ~1900 nM
α2β1γ2 GABAA receptors
  EC50: ~50 nM
α2β2γ2 GABAA receptors
  EC50: ~3500 nM

## Cc1ccc(-n2nc3c4cc(Cl)ccc4[nH]cc-3c2=O)cc1 [Compound 2, 8-Chloro-2-(4-methylphenyl)-2H-pyrazolo[4,3-c]quinolin-3(5H)-one]
α4β3γ2 GABAA receptors
  EC50: 13400 nM
α4β3γ2 GABAA receptors; [1]
  activity at 0.001 µM: 101 ± 1.8%
  activity at 0.003 µM: 96.3 ± 8%
  activity at 0.01 µM: 100 ± 2.2%
  activity at 0.03 µM: 104 ± 4.4%
  activity at 0.1 µM: 120 ± 10.1%
  activity at 1 µM: 162 ± 16.3%
  activity at 10 µM: 267 ± 16.8%
α4β3γ2 GABAA receptors; read-out: efficacy, % of control current (GABA EC3-5 = 100%), α4β3γ2, 30 µM
  activity at 30 µM: 315 ± 30.1%
